Results from the CheMixHub ionic liquid set.

Assay: xn = mol fraction of the nth substance listed
Details: 101 kPa

CCCCCCCCCCCCCCCC[N+](C)(C)C.[Br-] + NCC(=O)O + O
viscosity [mPa·s]
Details	298.15 K	303.15 K	308.15 K	313.15 K
x2 = 0.003591, x1 = 3.46e-06	0.906	0.819	0.74	0.67
x2 = 0.003591, x1 = 8.2e-06	0.909	0.82	0.742	0.671
x2 = 0.003591, x1 = 1.13e-05	0.912	0.82	0.745	0.672
x2 = 0.003591, x1 = 1.44e-05	0.914	0.825	0.749	0.674
x2 = 0.003591, x1 = 1.731e-05	0.922	0.827	0.752	0.675
x2 = 0.003591, x1 = 2.096e-05	0.93	0.831	0.755	0.678
x2 = 0.003591, x1 = 2.333e-05	0.932	0.843	0.757	0.68
x2 = 0.003591, x1 = 2.752e-05	0.936	0.847	0.759	0.683
x2 = 0.003591, x1 = 3.171e-05	0.94	0.853	0.761	0.689
x2 = 0.003591, x1 = 3.572e-05	0.94	0.855	0.764	0.692
x2 = 0.005377, x1 = 3.48e-06	0.879	0.801	0.725	0.644
x2 = 0.005377, x1 = 8.25e-06	0.881	0.804	0.726	0.644
x2 = 0.005377, x1 = 1.136e-05	0.884	0.805	0.726	0.645
x2 = 0.005377, x1 = 1.448e-05	0.886	0.807	0.727	0.647
x2 = 0.005377, x1 = 1.741e-05	0.89	0.808	0.728	0.648
x2 = 0.005377, x1 = 2.108e-05	0.893	0.811	0.731	0.649
x2 = 0.005377, x1 = 2.346e-05	0.896	0.813	0.733	0.65
x2 = 0.005377, x1 = 2.767e-05	0.9	0.816	0.736	0.651
x2 = 0.005377, x1 = 3.189e-05	0.906	0.823	0.738	0.653
x2 = 0.005377, x1 = 3.592e-05	0.912	0.828	0.741	0.655
x2 = 0.007156, x1 = 3.5e-06	0.914	0.848	–	–
x2 = 0.007156, x1 = 8.29e-06	0.918	0.852	–	–
x2 = 0.007156, x1 = 1.143e-05	0.92	0.855	–	–
x2 = 0.007156, x1 = 1.456e-05	0.922	0.859	–	–
x2 = 0.007156, x1 = 1.751e-05	0.925	0.864	–	–
x2 = 0.007156, x1 = 2.119e-05	0.926	0.868	–	–
x2 = 0.007156, x1 = 2.359e-05	0.929	0.872	–	–
x2 = 0.007156, x1 = 2.783e-05	0.933	0.876	–	–
x2 = 0.007156, x1 = 3.206e-05	0.937	0.882	–	–
x2 = 0.007156, x1 = 3.612e-05	0.944	0.886	–	–

C[P+](c1ccccc1)(c1ccccc1)c1ccccc1.[Br-] + OCC(O)CO + OCCO
298.2 K
Details	viscosity [mPa·s]
x1 = 0.2, x2 = 0	121
x1 = 0.2, x2 = 0.4	455
x1 = 0.2, x2 = 0.8	1894
